Tested on: HUVEC/MSC spheroids viability
Assay: Human HUVEC/MSC cell line growth inhibition [KRAS2];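 on viability, T/C: percent of DMSO vehicle control luminescence so 100% = untreated viability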
Settings: for IC50: curve of first compound; for viability, T/C: stronger effect = lower value
Summary of the method: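 Spheroids of pooled-donor HUVEC and hMSC (passage ≤5) without tumour cells were treated with KRAS-pathway inhibitors alone and combined with targeted agents. Top concentration was at or near clinical Cmax, or 10 microM when Cmax was unknown, descending in half-log steps.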

[1] = second compound 0.0316 µM, first compound 0.0316 µM
[2] = second compound 0.0316 µM, first compound 0.1 µM
[3] = second compound 0.1 µM, first compound 0.0316 µM
[4] = second compound 0.1 µM, first compound 0.1 µM
[5] = second compound 0.316 µM, first compound 0.0316 µM
[6] = second compound 0.316 µM, first compound 0.1 µM
[7] = second compound 1 µM, first compound 0.0316 µM
[8] = second compound 1 µM, first compound 0.1 µM
[9] = second compound 3.16 µM, first compound 0.0316 µM
[10] = second compound 3.16 µM, first compound 0.1 µM
[11] = second compound 10 µM, first compound 0.0316 µM
[12] = second compound 10 µM, first compound 0.1 µM
[13] = second compound 0.0316 µM, first compound 0.316 µM
[14] = second compound 0.0316 µM, first compound 1 µM
[15] = second compound 0.0316 µM, first compound 3.16 µM
[16] = second compound 0.0316 µM, first compound 10 µM
[17] = second compound 0.1 µM, first compound 0.316 µM
[18] = second compound 0.1 µM, first compound 1 µM
[19] = second compound 0.1 µM, first compound 3.16 µM
[20] = second compound 0.1 µM, first compound 10 µM
[21] = second compound 0.316 µM, first compound 0.316 µM
[22] = second compound 0.316 µM, first compound 1 µM
[23] = second compound 0.316 µM, first compound 3.16 µM
[24] = second compound 0.316 µM, first compound 10 µM
[25] = second compound 1 µM, first compound 0.316 µM
[26] = second compound 1 µM, first compound 1 µM
[27] = second compound 1 µM, first compound 3.16 µM
[28] = second compound 1 µM, first compound 10 µM
[29] = second compound 3.16 µM, first compound 0.316 µM
[30] = second compound 3.16 µM, first compound 1 µM
[31] = second compound 3.16 µM, first compound 3.16 µM
[32] = second compound 3.16 µM, first compound 10 µM
[33] = second compound 10 µM, first compound 0.316 µM
[34] = second compound 10 µM, first compound 1 µM
[35] = second compound 10 µM, first compound 3.16 µM
[36] = second compound 10 µM, first compound 10 µM

CC(C)n1nc(-c2ccc3oc(N)nc3c2)c2c(N)ncnc21 + COc1cc2nc(C)nc(NC(C)c3cc(N)cc(C(F)(F)F)c3)c2cc1OC1CCOC1
IC50 (second compound 0.0316 µM): 0.00301 µM
IC50 (second compound 0.1 µM): 0.00681 µM
IC50 (second compound 0.316 µM): 0.00294 µM
IC50 (second compound 1 µM): 0.0028 µM
IC50 (second compound 3.16 µM): 0.00249 µM
IC50 (second compound 10 µM): 0.00516 µM
viability, T/C (second compound 0.0316 µM, first compound 0.000316 µM): 78.9%
viability, T/C (second compound 0.0316 µM, first compound 0.001 µM): 80.2%
viability, T/C (second compound 0.0316 µM, first compound 0.00316 µM): 48.5%
viability, T/C (second compound 0.0316 µM, first compound 0.01 µM): 53%
viability, T/C [1]: 49.2%
viability, T/C [2]: 44%
viability, T/C (second compound 0.1 µM, first compound 0.000316 µM): 82.9%
viability, T/C (second compound 0.1 µM, first compound 0.001 µM): 61.5%
viability, T/C (second compound 0.1 µM, first compound 0.00316 µM): 55.5%
viability, T/C (second compound 0.1 µM, first compound 0.01 µM): 46.5%
viability, T/C [3]: 50.5%
viability, T/C [4]: 39.6%
viability, T/C (second compound 0.316 µM, first compound 0.000316 µM): 79.8%
viability, T/C (second compound 0.316 µM, first compound 0.001 µM): 76.2%
viability, T/C (second compound 0.316 µM, first compound 0.00316 µM): 48.2%
viability, T/C (second compound 0.316 µM, first compound 0.01 µM): 41.1%
viability, T/C [5]: 46.1%
viability, T/C [6]: 39%
viability, T/C (second compound 1 µM, first compound 0.000316 µM): 76%
viability, T/C (second compound 1 µM, first compound 0.001 µM): 67.2%
viability, T/C (second compound 1 µM, first compound 0.00316 µM): 49.3%
viability, T/C (second compound 1 µM, first compound 0.01 µM): 34.5%
viability, T/C [7]: 51%
viability, T/C [8]: 37.7%
viability, T/C (second compound 3.16 µM, first compound 0.000316 µM): 77%
viability, T/C (second compound 3.16 µM, first compound 0.001 µM): 71.8%
viability, T/C (second compound 3.16 µM, first compound 0.00316 µM): 44.2%
viability, T/C (second compound 3.16 µM, first compound 0.01 µM): 41.7%
viability, T/C [9]: 41.8%
viability, T/C [10]: 43.1%
viability, T/C (second compound 10 µM, first compound 0.000316 µM): 62.7%
viability, T/C (second compound 10 µM, first compound 0.001 µM): 61%
viability, T/C (second compound 10 µM, first compound 0.00316 µM): 59.3%
viability, T/C (second compound 10 µM, first compound 0.01 µM): 33.7%
viability, T/C [11]: 41.2%
viability, T/C [12]: 37.4%

COc1cc(Nc2ncc3c(n2)-c2ccc(Cl)cc2C(c2c(F)cccc2OC)=NC3)ccc1C(=O)O + COc1cc2nc(C)nc(NC(C)c3cc(N)cc(C(F)(F)F)c3)c2cc1OC1CCOC1
IC50 (second compound 0.0316 µM): > 10 µM
IC50 (second compound 0.1 µM): > 10 µM
IC50 (second compound 0.316 µM): 9.25 µM
IC50 (second compound 1 µM): > 10 µM
IC50 (second compound 3.16 µM): 9.65 µM
IC50 (second compound 10 µM): 8.57 µM
viability, T/C [1]: 79.5%
viability, T/C [2]: 94.3%
viability, T/C [13]: 109%
viability, T/C [14]: 82.5%
viability, T/C [15]: 111%
viability, T/C [16]: 61.6%
viability, T/C [3]: 95.5%
viability, T/C [4]: 89.7%
viability, T/C [17]: 105%
viability, T/C [18]: 85.8%
viability, T/C [19]: 97%
viability, T/C [20]: 58.8%
viability, T/C [5]: 87.8%
viability, T/C [6]: 97.1%
viability, T/C [21]: 92.5%
viability, T/C [22]: 105%
viability, T/C [23]: 104%
viability, T/C [24]: 46.5%
viability, T/C [7]: 86.9%
viability, T/C [8]: 89.5%
viability, T/C [25]: 96.8%
viability, T/C [26]: 106%
viability, T/C [27]: 107%
viability, T/C [28]: 52.7%
viability, T/C [9]: 77.4%
viability, T/C [10]: 94.8%
viability, T/C [29]: 102%
viability, T/C [30]: 77%
viability, T/C [31]: 102%
viability, T/C [32]: 48.7%
viability, T/C [11]: 62.5%
viability, T/C [12]: 85.8%
viability, T/C [33]: 72.5%
viability, T/C [34]: 84.9%
viability, T/C [35]: 74.9%
viability, T/C [36]: 46.1%

COc1cc2nccc(Oc3ccc(NC(=O)C4(C(=O)Nc5ccc(F)cc5)CC4)cc3)c2cc1OC + COc1cc2nc(C)nc(NC(C)c3cc(N)cc(C(F)(F)F)c3)c2cc1OC1CCOC1
IC50 (second compound 0.0316 µM): 6.12 µM
IC50 (second compound 0.1 µM): 4.19 µM
IC50 (second compound 0.316 µM): 5.33 µM
IC50 (second compound 1 µM): 5.1 µM
IC50 (second compound 3.16 µM): 4.26 µM
IC50 (second compound 10 µM): 1.87 µM
viability, T/C [1]: 73.8%
viability, T/C [2]: 75.2%
viability, T/C [13]: 66.8%
viability, T/C [14]: 80.3%
viability, T/C [15]: 73.5%
viability, T/C [16]: 32.5%
viability, T/C [3]: 74.7%
viability, T/C [4]: 77%
viability, T/C [17]: 68%
viability, T/C [18]: 64.8%
viability, T/C [19]: 63.4%
viability, T/C [20]: 15.9%
viability, T/C [5]: 66.1%
viability, T/C [6]: 68.5%
viability, T/C [21]: 60.8%
viability, T/C [22]: 78.2%
viability, T/C [23]: 87.7%
viability, T/C [24]: 23.3%
viability, T/C [7]: 61.6%
viability, T/C [8]: 69%
viability, T/C [25]: 58.1%
viability, T/C [26]: 85.2%
viability, T/C [27]: 79.4%
viability, T/C [28]: 21.1%
viability, T/C [9]: 60.6%
viability, T/C [10]: 67.2%
viability, T/C [29]: 60.9%
viability, T/C [30]: 76.5%
viability, T/C [31]: 66.9%
viability, T/C [32]: 3.26%
viability, T/C [11]: 56.9%
viability, T/C [12]: 57.8%
viability, T/C [33]: 73.3%
viability, T/C [34]: 82.5%
viability, T/C [35]: 35.1%
viability, T/C [36]: 0.26%

— PubChem BioAssay AID2060912 (Molecular Pharmacology Branch, DTP, NCI, 2025)
